Measured values published in patent US5019505A, “Enzymes having alpha-glycerol-3-phosphate oxidase activity, production and use thereof” (GEnzyme (U.K.) Ltd., priority 1986, dated 1991).
Values joined by “and” are separate entries in the source; they are usually repeats but may differ in a detail not shown here. Equal values may be shown once. Read-outs that look alike come from different tables or passages of the source.

Experiments:
[1] = system: α-glycerol-3-phosphate oxidase (α-GPO) from Propionibacterium freudenreichii subsp. freudenreichii (DSM 20270); experiment: α-GPO assay (Trinder-type H2O2 colour reaction, 505nm, 37° C.); assay type: biochemical
Protocol: Aliquots of the resulting supernatant containing partially purified α-GPO were used in the following test system: […]
L-α-glycerol-3-phosphate
4-amino-antipyrine 1.5 mM
Dimethylglutarate buffer (DMG; pH 7.5)
The rate of change of absorbance was measured at 505nm, 37° C. in a spectrophotometer.

[2] = system: α-GPO from P. freudenreichii subsp. freudenreichii (NCIMB 5959); experiment: α-GPO assay (Trinder-type H2O2 colour reaction); assay type: biochemical; conditions: read-out: Km for L-α-glycerol-3-phosphate
[3] = system: α-GPO from P. freudenreichii subsp. shermanii (formerly P. shermanii) (NCIMB 9885); experiment: α-GPO assay (Trinder-type H2O2 colour reaction); assay type: biochemical, P. freudenreichii subsp. shermanii (NCIMB 9885); conditions: cell-free extract, read-out: Km of the α-GPO for L-α-glycerol-3-phosphate
Protocol: (§1) Freeze-dried cultures of `P. acidi-propionici`(formerly `arabinosum`) NCIMB 5958) and `P. freudenreichii` subsp. `shermanii`(formerly `P. shermanii`) (NCIMB 9885) were obtained from the National Collection of Industrial and Marine Bacteria, Torry Research Station, Aberdeen, Scotland. The organisms were grown in a similar manner to that described above for `P. freudenreichii` subsp. `freudenriechii` (DSM 20270). The microorganisms were harvested, disrupted and assayed for α-GPO again in a similar way to `P. `freudenreichii` subsp. `freudenreichii` (DSM 20270).

[4] = system: α-GPO from P. freudenreichii subsp. shermanii (NCIMB 5964); experiment: α-GPO assay (Trinder-type H2O2 colour reaction); assay type: biochemical; conditions: read-out: Km for L-α-glycerol-3-phosphate
[5] = system: α-GPO from P. acidi-propionici (formerly arabinosum) (NCIMB 5958); experiment: α-GPO assay (Trinder-type H2O2 colour reaction); assay type: biochemical, P. acidi-propionici (NCIMB 5958); conditions: cell-free extract, read-out: Km of the α-GPO for L-α-glycerol-3-phosphate
Protocol: as §1

[6] = system: previously described examples of α-GPO; conditions: prior art enzymes; read-out: Km values for L-α-glycerol-3-phosphate; cited from earlier work
[7] = listed as L-α0glycerol-3-phosphate

O=P(O)(O)OC[C@H](O)CO [L-α-glycerol-3-phosphate]
Km ([1]; characterisation of the preferred enzyme, read-out: Michaelis-Menten constant (Km) in respect of L-α-glycerol-3-phosphate): 15 µM
Km ([1]; high speed centrifugation supernatant, DMG pH 7.5, 37° C., 505nm, read-out: Km of the α-GPO for its substrate, L-α-glycerol-3-phosphate): 15 µM
Km ([1]; pooled active fractions after Sephadex G-200 gel filtration, read-out: Km of the α-GPO for its substrate L-α-glycerol-3-phosphate): 15 µM
Km ([1]; read-out: Km for L-α-glycerol-3-phosphate): 15 µM and ~15 µM
fold lower Km value than previously described α-GPO ([1]; versus Km of 2.5mM or greater of previously described α-GPO): 170 fold
Km [2]: 26 µM and ~26 µM
Km [3, 7]: 22 µM
Km [3]: ~22 µM
Km [4]: 6 µM and ~6 µM
Km [5, 7]: 18 µM
Km [5]: ~18 µM
Km [6]: ≥ 2500 µM
